We go through two molecules from US12441693B2, “Targeting STAT sumoylation to enhance immune responses” (THE GEORGE WASHINGTON UNIVERSITY, priority 2018, dated 2025).

Data set [1] has as its system primary human CD4 T cells. Briefly: Viability of primary CD4 T cells in the screening. It is filed as cell-based. The settings on record: at the concentration tested. The protocol: It was observed that the ability of different benzotriazole and benzotriazin derivatives to increase STAT5 phosphorylation correlated with the ability of the compounds to induce the expression of CD69 (a STAT5 target gene) (FIG. 2A) but not CD25 (FIG. 2B) in the surface of human CD4 T cells. Based on these findings, a primary cell screening assay was set up according to FIG. 2C to identify derivatives with similar activity. As an example, flow cytometry was performed to isolated activated cells (FIG. 2D), which were expanded in the presence of DMSO or a compound of interest (FIG. 2E), and screened for changes in the expression of CD69 (FIG. 2F).

The next data set deals with K562. Briefly: NK cell killing of K562 cells, E:T 1:1, 4 hours. It is filed as cell-based, human. As to conditions: NK cells pretreated with single agent, E:T 1:1, 4 hours. The protocol:
It was therefore hypothesized that inhibiting STAT SUMOylation may enhance the ability of IL-15 stimulated NK cells to clear the HIV latent reservoir. To test the hypothesis, NK cells were treated with DMSO, IL-15-stimulated, treated with HODHBt or IL-15-stimulated and treated with HODHBt. Cells were then tested in their ability to kill the erythroleukemia cell line K562, which lack MHC-I. In an experiment, the NK cells from two donors were co-cultured with K562 at an E:T ratio of 1:1 for 4 hours (FIG. 19A). NK cells were pretreated with IL-15, HODHBt, or a combination of both.

Another data set has as its system NK cells. As to conditions: single agent, 48 hours. The protocol: To determine if STAT SUMOylation increases Gzm B expression in NK cells, isolated human NK cells were analyzed after a 3-day incubation with either IL-2, IL-15, HODHBt, IL-2+IL-15, HODHBt+IL-2, HODHBt+IL-15, or HODHBt+IL-2+IL-15.
To further characterize the effects of STAT SUMOylation inhibition in NK cell function, primary human NK cells were isolated and cultured with IL-15 in the presence or absence of HODHBt. 48 hours later, cells were phenotyped by flow cytometry.
To characterize the induction of other proteins known to be important for the cytolytic activity of NK cells, primary human NK cells were isolated from 6 male and 6 female donors and cultured with IL-15 in the presence or absence of HODHBt. 48 hours later, levels of Granzyme A (FIG. 18A), Perforin (FIG. 18B), Granulysin (FIG. 18C), TRAIL (FIG. 18D) and Fas ligand (FASL) (FIG. 18E) were analyzed by flow cytometry.
Antibody-dependent cell-mediated cytotoxicity (ADCC) is mediated by the recognition of an antibody bound to a cell through an Fc receptor present in NK cells, mostly CD16 (FCGR3A). To address whether inhibiting STAT SUMOylation alters CD16 expression in the surface of NK cells, freshly isolated NK cells were treated with either IL-15, HODHBt or a combination of both for 48 hours and surface expression of CD16 was measured by flow cytometry.
Since IL-15 activated STATs, it was hypothesized that STATs, and in particular STAT1, was controlling expression of CXCR5 (C—X—C Motif Chemokine Receptor 5) and that inhibiting STAT SUMOylation enhances CXCR5 expression and promotes migration towards a CXCL13 (C—X—C Motif Chemokine Ligand 13) gradient. CXCL13 controls homing of lymphocytes to follicles in lymph nodes; however whether this mechanism of regulation exists in human NK cells and whether IL-15 controls expression were unknown. To address which one of the two scenarios was potentially playing a role in the presence of NK cells within the follicles, human NK cells were treated with IL-15, HODHBt or a combination of both for 48 hours. Surface expression of CXCR5 and viability were next measured by flow cytometry.
To phenotype the cells, 1×10^5 cells were stained with a viability dye (Fixable Viability Dye eFluor 450, Affymetrix, eBioscience, San Diego, CA) and the surface marker-specific mAb specific for human: PE-anti-CD25 (Caltag, Burlingame, CA) and PE-anti-CD69 (Caltag, Burlingame, CA) followed by flow cytometric analysis in a BD FACScanto II flow cytometer using the FACSDiva software (Becton Dickinson, Mountain View, CA) and analyzed using FlowJo (Tree Star Inc., Ashland, OR).

Take `CC(C)(C)OC(=O)NCc1ccc(C(=O)On2nnc3ccccc3c2=O)cc1` [BIN024]: the “toxicity / viability of primary CD4 T cells” value in data set [1] is reported as “high levels of toxicity”.
As for IL-15: interleukin-15 (IL-15), cytokine, in the data set on K562, the “killing of K562 by pretreated NK cells” value is listed as “induced increase killing of K562 over a 4-hour period”. In addition, in the data set with NK cells, the “surface expression of CD69 on NK cells” value is on record as “induced the surface expression of CD69” and the “surface expression of CXCR5 on NK cells” value is listed as “induced surface expression of CXCR5”. Besides, the “expression of Granzyme A, Perforin, Granulysin, TRAIL and FASL in NK cells” value in the data set on NK cells (6 male and 6 female donors) is listed as “induced the expression of all these genes”. In the data set with NK cells (vs media control), the “expression of GZMB in NK cells” value is reported as “increased the expression of GZMB”.
